Experimental data taken from patent US20240285528A1, “NANO-MOLECULE AGGREGATE CONSISTING OF ORGANIC MATERIAL, INORGANIC MATERIAL OR SALT THEREOF AND PREPARATION METHOD THEREFOR” (SCAI THERAPEUTICS CO., LTD., priority 2021, published 2024).

Assay: Aqueous solubility (dispersity) by HPLC after stirring and filtration
Type: physicochemical
Settings: water, stirred at 25° C. for 10 hours, 0.2 micron filter

Row | SMILES | Aqueous solubility (dispersity)
1 | Nc1ncnc2c1ncn2[C@@H]1O[C@H](CO)[C@@H](O)[C@H]1O [Adenosine, adenosine] | 0.27 % (wt/v)
2 | CC(=O)Oc1cc2c(cc1Cl)C(c1ccccc1C(=O)O)c1cc(Cl)c(OC(C)=O)cc1O2 [DCF-DA, 2′, 7′-dichlorofluorescin diacetate] | 0.004 % (wt/v)
3 | C=C1CCN([C@H](C)[C@](O)(Cn2cncn2)c2ccc(F)cc2F)CC1 [Epinaconazole, epinaconazole] | 0.321 % (wt/v)

Now from value to compound:

Row | Aqueous solubility (dispersity) | SMILES
4 | 0.0033 % (wt/v) | O=C(Nc1ccc([N+](=O)[O-])cc1Cl)c1cc(Cl)ccc1O [Niclosamide, niclosamide]
5 | 7.6 % (wt/v) | C=CC[C@@H]1/C=C(\C)C[C@H](C)C[C@H](OC)[C@H]2O[C@@](O)(C(=O)C(=O)N3CCCC[C@H]3C(=O)O[C@H](/C(C)=C/[C@@H]3CC[C@@H](O)[C@H](OC)C3)[C@H](C)[C@@H](O)CC1=O)[C@H](C)C[C@@H]2OC [Tacrolimus, tacrolimus]
